Test results from PMC10744196, “Characterization of CrufCSP1 and Its Potential Involvement in Host Location by Cotesia ruficrus (Hymenoptera: Braconidae), an Indigenous Parasitoid of Spodoptera frugiperda (Lepidoptera: Noctuidae) in China” (Insects, 2023).
pIC50, pKd, pKi: −log10 of the molar value. Where two headings read alike, the source gives them in different places.

Legend:
CrufCSP1 [1] = test: Fluorescence competitive binding assay with 1-NPN as probe; parameters: species or system Cotesia ruficrus; details: for pIC50: recombinant CrufCSP1 2 μM, ligand 0 to 30 μM, tris-HCl pH 7.4
Experimental: (§1) The binding affinity between CrufCSP1 and the selected volatile compounds was determined using an F-7000 fluorescence spectrophotometer (Hitachi, Tokyo, Japan). N-phenyl-1-naphthylamine (1-NPN), a fluorescence probe, was used to assess the binding affinity. A total of 24 volatiles, i.e., alcohols (heptanol, undecanol, tetradecanol, cis-3-hexen-1-ol, 1,14-tetradecanediol, 2-hexanol, phytol, and linalool), aldehydes (hexanal, heptanal, octanal, nonanal, decanal, dodecanal, pentadecanal, benzaldehyde, p-methyl benzaldehyde, and trans-2-hexenal), and others (2-hydroxy-5-methylacetophenone, 2-heptanone, palmitic acid, N,N-dimethylcaprylamide, DMNT, and cis-3-hexenyl acetate), were selected for the fluorescence binding assay with CrufCSP1. Of these compounds, our research group previously identified undecanol, tetradecanol, 2-hexanol, 1,14-tetradecanediol, phytol, dodecanal, pentadecanal, p-methyl benzaldehyde, palmitic acid, 2-hydroxy-5-methylacetophenone, and N,N-dimethylcaprylamide in the larvae of S. frugiperda. The remaining compounds were chosen based on previous studies that identified them as corn volatiles.
To prepare the tested chemicals, all were dissolved in chromatographic grade methanol to achieve a 100 mM solution, which was then stored at −20 °C. Before use, this solution was diluted to 1 mM. CrufCSP1 was dissolved in 20 mM of tris-HCl (pH 7.4) and then diluted to a 2 μM working solution. To ensure the binding affinity of 1-NPN to the protein, the CrufCSP1 solution was titrated with 1-NPN with a concentration range of 2 to 20 μM. For the fluorescence competitive binding assays, each ligand was added to a mixture containing CrufCSP1 (2 μM) and 1-NPN (2 μM) at concentrations ranging from 0 to 30 μM. The maximum fluorescence intensity was then recorded and plotted against the ligand concentration based on the average of the three repeats. The dissociation constant (Kd) for binding between CrufCSP1 and 1-NPN was calculated using the Scatchard linear regressive equation in the software GraphPad Prism 8.0 (GraphPad Software Inc., La Jolla, CA, USA). Additionally, the ligand-binding affinity (Ki) was calculated utilizing the following equation: Ki=[IC50]/(1+[1−NPN]/K1−NPN) where IC50 represents the maximum concentration at which the ligand replaces 50% of the 1 − NPN fluorescence, [1 − NPN] denotes the free concentration of 1-NPN, and K1-NPN represents the dissociation constant of the protein/1 − NPN complex.

CrufCSP1 [2] = test: Binding of fluorescent probe 1-NPN to recombinant CrufCSP1 (Scatchard plot); parameters: species or system Cotesia ruficrus; details: CrufCSP1 2 μM titrated with 1-NPN 2 to 20 μM, read-out: dissociation constant toward 1-NPN
Experimental: as §1, with “Of these compounds, our research group previously identified undecanol, tetradecanol, 2-hexanol, 1,14-tetradecanediol, phytol, dodecanal, pentadecanal, p-methyl benzaldehyde, palmitic acid, 2-hydroxy-5-methylacetophenone, and N,N-dimethylcaprylamide in the larvae of S. frugiperda. The remaining compounds were chosen based on previous studies that identified them as corn volatiles.” left out
To prepare the tested chemicals, all were dissolved in chromatographic grade methanol to achieve a 100 mM solution, which was then stored at −20 °C. […] For the fluorescence competitive binding assays, each ligand was added to a mixture containing CrufCSP1 (2 μM) and 1-NPN (2 μM) at concentrations ranging from 0 to 30 μM. The maximum fluorescence intensity was then recorded and plotted against the ligand concentration based on the average of the three repeats. […]

[3] = calculated from IC50: Ki=[IC50]/(1+[1-NPN]/K1-NPN), CrufCSP1 2 μM, 1-NPN 2 μM

Compound	pKi (CrufCSP1 [1]; [3])	pIC50 (CrufCSP1 [1]; 1-NPN 2 μM)	further results
OCCCCCCCCCCCCCCO [1,14-Tetradecanediol]	< 4.30	< 4.30	–
c1ccc(Nc2cccc3ccccc23)cc1 [1-NPN, N-phenyl-1-naphthylamine]	–	–	pKd (CrufCSP1 [2]): 5.12
CCCCCC(C)=O [2-Heptanone]	< 4.30	< 4.30	–
CCCCC(C)O (centres unmarked) [2-Hexanol]	< 4.30	< 4.30	–
CC(=O)c1cc(C)ccc1O [2-Hydroxy-5-methylacetophenone]	4.70	4.64	pKi (CrufCSP1 [1]; calculated from IC50: Ki=[IC50]/(1+[1-NPN]/K1-NPN), CrufCSP1 2 μM, 1-NPN 2 μM, listed as 2-hydroxy-5-methylacetophenone): > 4.70
O=Cc1ccccc1 [Benzaldehyde]	–	4.76	pKi (CrufCSP1 [1]): 4.82; pKi (CrufCSP1 [1]; listed as benzaldehyde): > 4.70
C=C/C=C(\C)CCC=C(C)C [DMNT]	–	< 4.30	pKi (CrufCSP1 [1]): < 4.30
CCCCCCCCCC=O [Decanal]	4.66	4.60	–
CCCCCCCCCCCC=O [Dodecanal]	4.44	4.39	–
CCCCCCC=O [Heptanal]	< 4.30	< 4.30	–
CCCCCCCO [Heptanol]	4.56	4.50	–
CCCCCC=O [Hexanal]	4.71	4.66	pKi (CrufCSP1 [1]; calculated from IC50: Ki=[IC50]/(1+[1-NPN]/K1-NPN), CrufCSP1 2 μM, 1-NPN 2 μM, listed as hexanal): > 4.70
C=CC(C)(O)CCC=C(C)C (centres unmarked) [Linalool]	4.70	4.65	pKi (CrufCSP1 [1]; calculated from IC50: Ki=[IC50]/(1+[1-NPN]/K1-NPN), CrufCSP1 2 μM, 1-NPN 2 μM, listed as linalool): > 4.70
CCCCCCCC(=O)N(C)C [N,N-Dimethylcaprylamide]	4.71	4.66	pKi (CrufCSP1 [1]; calculated from IC50: Ki=[IC50]/(1+[1-NPN]/K1-NPN), CrufCSP1 2 μM, 1-NPN 2 μM, listed as N,N-dimethylcaprylamide): > 4.70
CCCCCCCCC=O [Nonanal]	< 4.30	< 4.30	–
CCCCCCCC=O [Octanal]	4.82	4.77	pKi (CrufCSP1 [1]; calculated from IC50: Ki=[IC50]/(1+[1-NPN]/K1-NPN), CrufCSP1 2 μM, 1-NPN 2 μM, listed as octanal): > 4.70
CCCCCCCCCCCCCCCC(=O)O [Palmitic acid]	< 4.30	< 4.30	–
CCCCCCCCCCCCCCC=O [Pentadecanal]	–	4.35	pKi (CrufCSP1 [1]): 4.41
CCCCCCCCCCCCCCO [Tetradecanol]	< 4.30	< 4.30	–
CCCCCCCCCCCO [Undecanol]	< 4.30	< 4.30	–
CC/C=C\CCO [cis-3-Hexen-1-ol]	4.61	4.55	–
CC/C=C\CCOC(C)=O [cis-3-Hexenyl acetate]	4.53	4.48	–
Cc1ccc(C=O)cc1 [p-Methyl benzaldehyde]	–	4.34	pKi (CrufCSP1 [1]): 4.40
CCC/C=C/C=O [trans-2-Hexenal]	–	4.78	pKi (CrufCSP1 [1]): 4.84; pKi (CrufCSP1 [1]; listed as trans-2-hexenal): > 4.70
Phytol	–	< 4.30	pKi (CrufCSP1 [1]): < 4.30
